US12029728B2, “Small molecules with anti-protozoan activity” (New Mexico Tech University Research Park Corporation, priority 2018, dated 2024)

Tested on: PBMC cells
Test: MTT toxicity assay on PBMC / monocyte-derived macrophages
Assay type: cell-based, Human
Settings: 5 (μM) MTF, 48 hours
Experimental: Human peripheral blood mononuclear cells (PBMC) were plated onto polylysine-coated glass slides in 24-well plates and allowed to differentiate towards monocyte-derived macrophages (MDMs). Non-adherent cells were removed 48-hours post plating. Adherent monocytes were left to further differentiate for another 48 hours to MDMs. Following the completion of the differentiation period, MDMs were treated with vehicle control (DMSO), […], or 10 μM of Compound 1, Compound 3, Compound 4, Compound 6, Compound 7, Compound 8, Compound 9, Compound 10, or Compound 11 for 48 hours.

## CCCCCCCCCCCCCCCCOP(=O)([O-])OCC[N+](C)(C)C [MTF, miltefosine]
  toxicity to PBMC cells (MTT): not toxic
